Laboratory results taken from US20220280507A1, “USES OF 5-METHYLTETRAHYDROFOLATE AND ITS COMPOSITION” (Lianyungang Jinkang Hexin Pharmaceutical Co., Ltd., priority 2019, published 2022).

What was measured:
IL-6 = assay: LPS-induced inflammatory response in astrocytes, IL-6 release (ELISA); type: cell-based, Kunming mice; settings: culture supernatant, LPS 1 μg·ml-1 + substance 10 μg·ml-1, 24 h, n=6
Description: Experiment 9 Inhibition of 5-Methyltetrahydrofolate and Curcumin on LPS-Induced Inflammatory Response in Astrocytes
The cerebral cortex of Kunming mice at 1˜2 d was taken out under aseptic conditions, washed 3 times with cold PBS after removing residual meninges and blood vessels, prepared into single cell suspension by blowing, centrifuged, the supernatant was discarded, and the precipitant was resuspended in AST basic medium (high-sugar DMEM containing 10% FBS). The suspension was inoculated into a culture flask coated with poly-L-lysine (0.1 mg/ml), and cultured in a CO2 incubator. After 24 h, tissue debris and non-adherent cells were removed by replacing the medium. Afterwards, the medium was replaced every 3 days until the cells reached 80% confluence, then the flask was placed on a constant temperature rotary shaker, where the suspension was centrifuged at 180 r/min, 37° C. for 18 h to remove oligodendrocytes and microglia from the upper layer. Then trypsin digestion was used for subculture. […]
LPS (1 μg·ml-1), LPS (1 μg·ml-1)+curcumin (10 μg·ml-1), LPS (1 μg·ml-1)+5-MTHF-Ca (10 μg·ml-1); experimental group: LPS (1 μg·ml-1)+curcumin (5 μg·ml-1)+5-MTHF-Ca (5 μg·ml-1). After 24 h, the culture supernatant was collected, and the cytokines IL-6, IL-1β and TNF-α were detected by ELISA.

[1] = Alcoholic fatty liver model, body weight during administration period; type: in vivo, SD rats; settings: liquor model
Protocol: (§1) According to their weight, they were randomly divided into vehicle control group (purified water, ig), model control group (liquor, 10 ml·Kg−1), positive control group (bicyclol, 50 mg·Kg−1, ig), folic acid calcium salt high-dose group (4 mg·Kg−1), folic acid calcium salt medium-dose group (2 mg·Kg−1), folic acid calcium salt low-dose group (1 mg·Kg−1), in half female and half male, and 16 rats in each group. Purified water was used as a negative control, and bicyclol (place of origin: Beijing Xiehe Pharmaceutical Factory, specification: 25 mg/tablet, batch number: H20040467) was used as a positive control drug. Route of administration: all were administered by oral gavage. Dosage of administration: 1 mg·Kg−1, 2 mg·Kg−1, and 4 mg·Kg−1. Frequency of administration: once a day for 60 consecutive days.
(§2) Method of administration: administration started at prescribed doses on the day of modeling for 60 consecutive days and ended at the 60th day. At the same time, rats in each group were weighed every other week during administration period to monitor their body weight changes. On the 61st day, rats were dissected and serum was collected for determination of triglyceride (TG), total cholesterol (TC), malondialdehyde (MDA), superoxide dismutase (SOD) and liver histopathologic examination. The brain tissue of rats was taken out, and hippocampus tissue was separated on ice plate, prepared to homogenate with a mass fraction of 10% with purified water, then the homogenate was centrifuged to obtain supernatant. ELISA was used to detect the levels of inflammatory factors TNF-α and IL-1β in hippocampus tissue with continuous spectrum scanning microplate reader.

hyperlipemia rats = assay: Hyperlipemia rats (high-fat diet), body mass, liver mass, liver index, NASH pathology; type: in vivo, SD rats; settings: for Body mass / Liver index / Liver mass: 8 cases; for Pathological state (NASH): of 8 cases
Protocol: Experiment 5 Effect of 5-Methyltetrahydrofolate Calcium on Hyperlipemia Rats
7 weeks later, one rat in the control group and one rat in the model group were sacrificed for liver tissue section to check fatty degeneration of hepatocytes (see Table 7) to confirm whether modeling was successful. The remaining 40 modeling rats were randomly divided into low-dose (1 mg·Kg−1) group, medium-dose (2 mg·Kg−1) group, high-dose (4 mg·Kg−1) group, positive drug group, and model group.
Bicyclol (place of origin: Beijing Xiehe Pharmaceutical Factory, specification: 25 mg/tablet, batch number: H20040467) was used as a positive drug.
After successful modeling, rats were administered drugs with dosages as prescribed for 60 consecutive days, continued to be fed with high-fat diet, and dissected on the 61st day. Liver was harvested and weighed, liver index was calculated, right lobe tissue was taken to prepare frozen sections, and fat staining was performed with Sudan III for pathological scoring according to guidelines for diagnosis and treatment of NAFLD. Another liver tissue was taken to prepare homogenate, and total cholesterol (TC), triglyceride (TG), malondialdehyde (MDA), and superoxide dismutase (SOD) in serum were detected.

IL-1β = assay: Alcoholic fatty liver model, IL-1β in hippocampus tissue (ELISA); type: in vivo, SD rats; settings: liquor model, n=16
Protocol: as §1, §2

Substance 5-methyltetrahydrofolate calcium has an IL-6 (IL-6) of 993.24 ± 52.05 pg/mL, a Body weight ([1]; 1 mg·kg−1·d−1 ig, Week 0, n=16) of 195.64 g and a Body weight ([1]; 1 mg·kg−1·d−1 ig, Week 1, n=16) of 215.16 g. The Body weight ([1]; 1 mg·kg−1·d−1 ig, Week 2, n=16) was 282.30 g, the Body weight ([1]; 1 mg·kg−1·d−1 ig, Week 3, n=16) was 299.34 g and the Body weight ([1]; 1 mg·kg−1·d−1 ig, Week 4, n=16) was 312.99 g. The Body weight ([1]; 1 mg·kg−1·d−1 ig, Week 5, n=16) was 317.48 g, the Body weight ([1]; 1 mg·kg−1·d−1 ig, Week 6, n=16) was 334.47 g and the Body weight ([1]; 1 mg·kg−1·d−1 ig, Week 7, n=16) was 355.89 g. It also gave a Body weight ([1]; 1 mg·kg−1·d−1 ig, Week 8, n=16) of 375.85 g, a Body weight ([1]; 2 mg·kg−1·d−1 ig, Week 0, n=16) of 190.85 g and a Body weight ([1]; 2 mg·kg−1·d−1 ig, Week 1, n=16) of 219.44 g. For the same substance, the Body weight ([1]; 2 mg·kg−1·d−1 ig, Week 2, n=16) was 274.69 g, the Body weight ([1]; 2 mg·kg−1·d−1 ig, Week 3, n=16) was 293.12 g and the Body weight ([1]; 2 mg·kg−1·d−1 ig, Week 4, n=16) was 321.78 g. The Body weight ([1]; 2 mg·kg−1·d−1 ig, Week 5, n=16) was 328.10 g, the Body weight ([1]; 2 mg·kg−1·d−1 ig, Week 6, n=16) was 345.05 g and the Body weight ([1]; 2 mg·kg−1·d−1 ig, Week 7, n=16) was 352.90 g. For the same substance, the Body weight ([1]; 2 mg·kg−1·d−1 ig, Week 8, n=16) was 383.69 g, the Body weight ([1]; 4 mg·kg−1·d−1 ig, Week 0, n=16) was 196.33 g and the Body weight ([1]; 4 mg·kg−1·d−1 ig, Week 1, n=16) was 218.24 g. The Body weight ([1]; 4 mg·kg−1·d−1 ig, Week 2, n=16) was 285.54 g, the Body weight ([1]; 4 mg·kg−1·d−1 ig, Week 3, n=16) was 296.05 g and the Body weight ([1]; 4 mg·kg−1·d−1 ig, Week 4, n=16) was 307.43 g. It also gave a Body weight ([1]; 4 mg·kg−1·d−1 ig, Week 5, n=16) of 321.49 g, a Body weight ([1]; 4 mg·kg−1·d−1 ig, Week 6, n=16) of 349.47 g and a Body weight ([1]; 4 mg·kg−1·d−1 ig, Week 7, n=16) of 372.49 g. The Body weight ([1]; 4 mg·kg−1·d−1 ig, Week 8, n=16) was 392.02 g, the Body mass (hyperlipemia rats; high dose 4 mg·Kg−1, 60 d) was 472.49 ± 37.8 g and the Liver index (hyperlipemia rats; high dose 4 mg·Kg−1, 60 d) was 2.3 ± 0.5. For the same substance, the Liver mass (hyperlipemia rats; high dose 4 mg·Kg−1, 60 d) was 10.9 ± 2.5 g, the “Pathological state (NASH)” value (hyperlipemia rats; high dose 4 mg·Kg−1, 60 d) was 0 case and the Body mass (hyperlipemia rats; low dose 1 mg·Kg−1, 60 d) was 445.89 ± 39.0 g. The Liver index (hyperlipemia rats; low dose 1 mg·Kg−1, 60 d) was 3.4 ± 0.3, the Liver mass (hyperlipemia rats; low dose 1 mg·Kg−1, 60 d) was 15.3 ± 3.5 g and the “Pathological state (NASH)” value (hyperlipemia rats; low dose 1 mg·Kg−1, 60 d) was 1 case. For the same substance, the Body mass (hyperlipemia rats; medium dose 2 mg·Kg−1, 60 d) was 452.93 ± 37.5 g, the Liver index (hyperlipemia rats; medium dose 2 mg·Kg−1, 60 d) was 2.6 ± 0.2 and the Liver mass (hyperlipemia rats; medium dose 2 mg·Kg−1, 60 d) was 11.6 ± 2.9 g. The “Pathological state (NASH)” value (hyperlipemia rats; medium dose 2 mg·Kg−1, 60 d) was 0 case, the “IL-1β in hippocampus tissue” value (IL-1β; 1 mg·kg−1·d−1 ig 60 d) was 63.05 ± 5.31 μg · g^−1 prot and the “IL-1β in hippocampus tissue” value (IL-1β; 2 mg·kg−1·d−1 ig 60 d) was 63.24 ± 13.44 μg · g^−1 prot. For the same substance, the “IL-1β in hippocampus tissue” value (IL-1β; 4 mg·kg−1·d−1 ig 60 d) was 55.21 ± 3.59 μg · g^−1 prot.
